Laboratory results from patent publication US20250197356A1, “METHOD FOR SYNTHESIZING NUCIFERINE OR DERIVATIVE THEREOF, DERIVATIVE OF NUCIFERINE AND USE THEREOF” (HUAQIAO UNIVERSITY, priority 2022, published 2025).

Legend:
hyperlipidemia rats [1] = test: Liver tissue homogenate biochemical indicators in high-fat diet hyperlipidemia rats; assay type: in vivo, SD rats; details: for CAT (U/mgprot) / GSH (μmol/gprot) / GSH-Px (U/mgprot) / HL (U/mgprot) / LPL (U/mgprot) / MDA (nmol/mgprot) / NEFA (μmol/g prot) / TG (mmol/g prot): liver tissue, 20 mg/(kg d) by gastric gavage, 4 weeks, x ± s, n = 9
Description: (§1) Animals: 54 SPF-grade SD rats, weighing 120±10 g, provided by Laboratory Animal Business Department, Shanghai Family Planning Research Institute, China, Animal license number: SCXK(Shanghai)2018-0006.
(§2) Drug to be tested: Nuciferine purchased from Shanghai Aladdin Biochemical Technology Co., Ltd., China, and its derivatives (purity >99%) that were synthesized in the laboratory by the methods of Examples 2-7.
(§3) Other reagents: AST, ALT, TC, TG, NEFA, Bun, Cr, CAT, GSH-Px, GSH, MDA test kits, purchased from Nanjing Jiancheng Bioengineering Institute, China; HL and PL test kits, purchased from Jianglai Biotechnology Co., Ltd., China; experimental reagents such as anhydrous ethanol, xylene, isopropanol neutral gum, purchased from Sinopharm Chemical Reagent Co., Ltd., China; HE dye solution, DAB color development agent, and oil red O dye solution, purchased from KeyGEN Biotechnology Co., Ltd, China; Antibodies IL-6 and TNF-α, purchased from Abcam Limited.
(§4) Modeling scheme: 54 adult rats of 120±10 g were selected and fed adaptively for three days. They were then randomly divided to 6 groups, 9 animals for each group. They were blank control group, model group, positive control group, nuciferine group, and nuciferine structural modification group. The blank control group was fed with normal diet. […] The feeding and modeling time was 5 weeks. Within 4 weeks after modeling, continuous administration was performed: the blank control group and model group were given 0.2 mL of distilled water by gastric gavage; the positive control group was administrated 20 mg/(kg d) of simvastatin; while the treatment group was administrated 20 mg/(kg d) of nuciferine or 20 mg/(kg d) of a derivative of nuciferine (compounds 6a-6f).
(§5) Liver tissue sample collection: the rats were killed by dislocation, and the liver was taken out immediately after death, which was observed by naked eye to find out whether there was abnormal color and lesions, and was then rinsed with ice normal saline. The left lobe of the liver was quickly cut into small pieces and fixed in 10% formaldehyde overnight for sectioning. The tissue of the right lobe of the liver was quickly wrapped in tin box and stored at −80° C. for later use.
Preparation of 10% liver homogenate: the liver wrapped in tin box and stored in the ultra-low temperature freezer at −80° C. was taken out, and quickly placed on an ice box. 0.2 g of liver tissue was accurately taken, and ice normal saline with a volume 9 times that of the liver issue was added thereto. 10% tissue homogenate was formed by grounding and mixing, and then centrifuged at 3000 r/min and 4° C. for 10 min. The supernatant was collected for later use.
(§6) Biochemical indicator determination: indicators AST, ALT, TC, TG, NEFA, Bun, Cr, CAT, GSH-Px, GSH, MDA, HL, PL were determined according to the instructions of the kits.

hyperlipidemia rats [2] = test: Serum biochemical indicators in high-fat diet hyperlipidemia rats; assay type: in vivo, SD rats; details: for LDL-C / TC / TG / ALT (U/L) / AST (U/L) / Bun / Cr: serum, 20 mg/(kg d) by gastric gavage, 4 weeks; for ALT (U/L) / AST (U/L) / Bun / Cr: x ± s, n = 9
Description: as §1, §2, §3, §4
Blood sample collection: 24 h after the last gastric gavage administration, eyeballs were taken out and blood was drawn. Whole blood was collected in an EP tube, and centrifuged at 3000 r/min and 4° C. for 10 min, and the supernatant was collected and stored at −20° C. for blood biochemical indicator test.
as §6

hyperlipidemia rats [3] = test: Liver and kidney indexes in high-fat diet hyperlipidemia rats; assay type: in vivo, SD rats; details: 20 mg/(kg d) by gastric gavage, 4 weeks, x ± s, n = 9
Description: as §1
(§7) Modeling scheme: 54 adult rats of 120±10 g were selected and fed adaptively for three days. They were then randomly divided to 6 groups, 9 animals for each group. They were blank control group, model group, positive control group, nuciferine group, and nuciferine structural modification group. The blank control group was fed with normal diet. […] The feeding and modeling time was 5 weeks.
as §5

hyperlipidemia rats [4] = test: Liver appearance and HE histopathological observation in hyperlipidemia rats; assay type: in vivo, SD rats; details: compared with the model group, 20 mg/(kg d)
Description: as §1, §7, §5

TNF-α = test: Immunohistochemistry of liver of hyperlipidemia rats; assay type: in vivo, SD rats; details: compared with the model group, 20 mg/(kg d)
Description: as §1, §2, §3
as §7, with “weeks. […]” for “weeks.”

IL-6 = test: as above; assay type: in vivo, SD rats; details: compared with the model group, 20 mg/(kg d)
Description: as §1, §2, §3
as §7, with “weeks. […]” for “weeks.”

hyperlipidemia rats [5] = test: Oil red O staining of liver in hyperlipidemia rats; assay type: in vivo, SD rats; details: compared with the model group, 20 mg/(kg d)
Description: as §1, §2
as §4, with “6a-6f). […]” for “6a-6f).”

[6] = TCMSP database, screening threshold OB ≥30%; cited from earlier work

Row | Compound | CAT (U/mgprot) (hyperlipidemia rats [1]) | GSH (μmol/gprot) (hyperlipidemia rats [1]) | GSH-Px (U/mgprot) (hyperlipidemia rats [1]) | HL (U/mgprot) (hyperlipidemia rats [1]) | LPL (U/mgprot) (hyperlipidemia rats [1]) | MDA (nmol/mgprot) (hyperlipidemia rats [1]) | NEFA (μmol/g prot) (hyperlipidemia rats [1]) | TG (mmol/g prot) (hyperlipidemia rats [1]) | LDL-C (hyperlipidemia rats [2]) [mmol/L] | TC (hyperlipidemia rats [2]) [mmol/L] | TG (hyperlipidemia rats [2]) [mmol/L] | ALT (U/L) (hyperlipidemia rats [2]) | AST (U/L) (hyperlipidemia rats [2]) | Bun (hyperlipidemia rats [2]) [mmol/L] | Cr (hyperlipidemia rats [2]) [µmol/L] | Kidney index (%) (hyperlipidemia rats [3]) | Liver index (%) (hyperlipidemia rats [3]) | other results
1 | COc1cc2c3c(c1OC)-c1ccccc1CC3N(C(=O)c1ccc(F)cc1)CC2 (centres unmarked) [Compound 6b, p-Fluorobenzoylnuciferine] | 25.90 ± 4.29 | 365.04 ± 71.78 | 532.14 ± 30.92 | 0.51 ± 0.05 | 0.29 ± 0.10 | 1.03 ± 0.33 | 106.32 ± 22.95 | 0.13 ± 0.02 | 0.68 ± 0.16 | 2.01 ± 0.14 | 0.57 ± 0.08 | 16.43 ± 9.51 | 7.91 ± 2.21 | 3.48 ± 0.24 | 53.90 ± 1.81 | 0.68 ± 0.02 | 4.58 ± 0.23 | Liver appearance (photographs, FIG. 8) (hyperlipidemia rats [4]): more brittle
2 | COc1cc2c3c(c1OC)-c1ccccc1C[C@H]3N(C)CC2 [Nuciferine] | 28.44 ± 3.34 | 377.68 ± 137.77 | 720.65 ± 59.57 | 0.47 ± 0.05 | 0.43 ± 0.07 | 0.92 ± 0.15 | 99.87 ± 8.25 | 0.08 ± 0.01 | 0.53 ± 0.12 | 1.90 ± 0.19 | 0.48 ± 0.04 | 13.97 ± 5.71 | 6.43 ± 1.56 | 3.27 ± 0.22 | 52.59 ± 4.81 | 0.68 ± 0.04 | 4.52 ± 0.30 | HL and LPL contents in liver tissue, result in words (hyperlipidemia rats [1]; compared with the model group): best effect; NEFA content in liver tissue, result in words (hyperlipidemia rats [1]; compared with the model group): significantly decreases; Expression level of TNF-α in liver (FIG. 12) (TNF-α): decrease; Expression level of IL-6 in liver (FIG. 11) (IL-6): decrease; Oil red O-stained liver sections: lipid accumulation (FIG. 10) (hyperlipidemia rats [5]): reduced fat accumulation; Content of HDL-C in the serum, result in words (hyperlipidemia rats [2]; compared with the model group): significantly increases; Serum AST and ALT contents, result in words (hyperlipidemia rats [2]; compared with the model group): best effect; HE-stained liver tissue: lipid vacuoles and inflammatory infiltration (FIG. 9) (hyperlipidemia rats [4]): lipid vacuoles in hepatocytes are significantly reduced; OB/% (oral bioavailability) [6]: 34.43%
